Read-outs that look alike come from different tables or passages of the source.
Columns and labels:
[1] = tested on: thyroid gland cancer cell line TT having RET activating mutation (C634W); assay: Cell growth inhibitory activity, thyroid gland cancer cell line TT; type: cell-based; conditions: Homo sapiens, 216 h; TT cells, 9 days, CellTiter-Glo
Method: The cell growth inhibitory activity of the test compound on the thyroid gland cancer cell line TT having RET activating mutation (C634W) (Biochemical and Biophysical Research Communications. 1995 Feb. 27 (207), 1022-1028) was measured.
TT cells were seeded on a 96-well plate at a cell density of 5,000 cells per well, and were then cultured at 37° C. in the presence of 5% CO2 overnight in an F-12K nutrient mixture medium containing 10% FBS. Thereafter, the compound was diluted, and then added to the 96-well plate. As a negative control, dimethyl sulfoxide (hereinafter referred to as DMSO) was added. The obtained mixture was cultured at 37° C. in the presence of 5% CO2 for 9 days, and thereafter, a cell count measuring reagent CellTiter-Glo® Luminescent Cell Viability Assay was added to the culture, followed by stirring the mixture. Thereafter, using a luminescence measurement device Envision (Perkin Elmer), the luminescence intensity was measured. The measurement value of a well to which only the medium had been added was define as a survival rate of 0%, and the measurement value of a well to which DMSO had been added was defined as a survival rate of 100%. The survival rate of the TT cells in the presence of each concentration of the test compound was calculated.

[2] = tested on: non-small cell lung cancer cell line LC-2/ad having a CCDC6-RET fusion gene; assay: Cell growth inhibitory activity, non-small cell lung cancer cell line LC-2/ad; type: cell-based; conditions: Homo sapiens, 216 h; LC-2/ad cells, 9 days, CellTiter-Glo
Method: The cell growth inhibitory activity of the test compound on the non-small cell lung cancer cell line LC-2/ad having a CCDC6-RET fusion gene (RIKEN, J Thorac Oncol. 2012 December, 7(12), 1872-6) was measured.
LC-2/ad cells were seeded on a 96-well plate at a cell density of 5,000 cells per well, and then cultured at 37° C. in the presence of 5% CO2 overnight in a medium prepared by mixing RPMI-1640 containing 15% FBS and 25 mM HEPES with Ham's F12 Mixture at a mixing ratio of 1:1. Thereafter, the test compound was diluted, and then added to the 96-well plate. As a negative control, dimethyl sulfoxide (hereinafter referred to as DMSO) was added. The obtained mixture was cultured at 37° C. in the presence of 5% CO2 for 9 days, and thereafter, a cell count measuring reagent CellTiter-Glo® Luminescent Cell Viability Assay (Promega, # G7571) was added to the culture, followed by stirring the mixture. Thereafter, using a luminescence measurement device Envision, the luminescence intensity was measured. The measurement value of a well to which only the medium had been added was define as a survival rate of 0%, and the measurement value of a well to which DMSO had been added was defined as a survival rate of 100%. The survival rate of the LC-2/ad cells in the presence of each concentration of the test compound was calculated.

[3] = tested on: phosphorylated RET in Ba/F3-RET-V804M tumors; assay: One shot PKPD analysis, Ba/F3-RET-V804M tumors; type: in vivo, mice
[4] = target: RET-Gatekeeper mutation (V804L) recombinant protein (Homo sapiens (Human), UniProt P07949, V804L); assay: Evaluation of RET kinase inhibiting activity (cell-free system), gatekeeper mutant; type: biochemical
Chain of RET-Gatekeeper mutation (V804L) recombinant protein (P07949 29-1114 V804L): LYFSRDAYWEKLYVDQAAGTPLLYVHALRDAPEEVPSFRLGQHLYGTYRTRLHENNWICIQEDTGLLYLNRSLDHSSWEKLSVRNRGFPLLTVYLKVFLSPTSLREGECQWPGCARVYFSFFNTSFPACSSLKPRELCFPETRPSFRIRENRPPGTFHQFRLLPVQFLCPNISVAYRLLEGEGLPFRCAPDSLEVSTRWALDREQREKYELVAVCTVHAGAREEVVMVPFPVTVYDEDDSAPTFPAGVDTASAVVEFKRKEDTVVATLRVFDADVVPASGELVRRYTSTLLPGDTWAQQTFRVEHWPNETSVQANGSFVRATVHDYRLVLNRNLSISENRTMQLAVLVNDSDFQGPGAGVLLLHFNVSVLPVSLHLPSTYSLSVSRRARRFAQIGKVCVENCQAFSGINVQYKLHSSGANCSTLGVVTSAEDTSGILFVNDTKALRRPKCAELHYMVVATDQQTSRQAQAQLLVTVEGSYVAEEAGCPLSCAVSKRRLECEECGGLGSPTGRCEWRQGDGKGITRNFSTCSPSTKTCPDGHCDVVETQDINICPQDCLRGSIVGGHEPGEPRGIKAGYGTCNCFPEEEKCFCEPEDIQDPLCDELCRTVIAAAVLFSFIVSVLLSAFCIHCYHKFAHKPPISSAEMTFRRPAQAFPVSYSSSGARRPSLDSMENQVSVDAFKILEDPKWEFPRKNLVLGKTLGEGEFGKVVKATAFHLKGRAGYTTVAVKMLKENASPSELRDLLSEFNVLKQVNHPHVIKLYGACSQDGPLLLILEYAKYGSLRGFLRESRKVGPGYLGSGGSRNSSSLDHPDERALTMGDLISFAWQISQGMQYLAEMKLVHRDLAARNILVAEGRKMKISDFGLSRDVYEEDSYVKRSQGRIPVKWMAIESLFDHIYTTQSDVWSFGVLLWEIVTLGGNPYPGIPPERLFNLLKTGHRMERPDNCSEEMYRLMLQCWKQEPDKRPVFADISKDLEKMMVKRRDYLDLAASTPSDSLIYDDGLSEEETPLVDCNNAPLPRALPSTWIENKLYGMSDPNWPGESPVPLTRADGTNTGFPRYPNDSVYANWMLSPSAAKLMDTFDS
Method: (§1) 19 uL of the RET kinase solution was added to each of lines A to P of a 384-well plate, and thereafter, the test compound at each concentration was added to lines C to N, and further, 1 uL of dimethyl sulfoxide (hereinafter referred to as DMSO) was added to each of lines A, B, O and P. Thereafter, the obtained mixtures were each preincubated at room temperature for 20 minutes. Furthermore, a substrate solution A containing ATP (final concentration: 1 mM) and a substrate solution B containing no ATP, both in addition to a reaction buffer and FL-Peptide 22 (PerkinElmer, #760366, final concentration: 1.5 uM) were produced. The substrate solution A was added in an amount of 5 uL to lines B to 0, whereas the substrate solution B was added in an amount of 5 uL to lines A and P. The obtained mixtures were each incubated at 28° C. for 45 minutes. A reaction termination solution (100 mM HEPES (pH 7.4), 0.015% Briji-35, 40 mM EDTA, and 0.1% Coating Reagent 3) was added in an amount of 40 ul to the reaction mixture, so as to terminate the reaction.
(§2) Using EZ Reader II (Perkin Elmer), a substrate peptide was separated from a phosphorylated peptide in the reaction solution, and the product ratio (P/(P+S)) calculated from the peak (S) of the substrate peptide and the peak (P) of the phosphorylated peptide was used for evaluation. The inhibition of the test compound having each concentration was obtained by the following formula (automatically calculated using the software of EZ Reader II System). Inhibition (%)=100×(1−Ci/Co) (a) Ci: Conversion rate of a reaction of a test compound with substrate solution A−conversion rate of a reaction of DMSO with substrate solution B Co: Conversion rate of a reaction of DMSO with substrate solution A−conversion rate of a reaction of DMSO with substrate solution B
(§3) Based on the inhibition rates of the test compound at 12 different concentrations according to the formula (a), a 4-parameter logistic regression curve was drawn. At this time, the 4-parameter logistic regression equation is expressed as follows. Inhibition (%)=Bottom+(Top−Bottom)/(1+(X/IC50)^^slope) (b) Top: Upward asymptote Slope: Slope parameter IC50: Value X of (Top+Bottom)/2 Bottom: Downward asymptote X: Concentration of test compound
(§4) First, any given initial values are inputted into Top, Slope, IC50, Bottom (Top=100, Slope=−1, IC50=approx. IC50, and Bottom=0), so that a regression curve was drawn. Subsequently, a least-squares method was executed to the sum of squares of a difference between the measured value and the estimated value obtained from formula (b) to calculate the coefficient of the 4-parameter logistic regression equation, so as to calculate IC50.

[5] = target: RET recombinant protein (RET-wild type) (Homo sapiens (Human), UniProt P07949); assay: Evaluation of RET kinase inhibiting activity (cell-free system), mobility shift assay; type: biochemical
Chain of RET recombinant protein (RET-wild type) (P07949 29-1114): as the sequence (P07949 29-1114 V804L) above, with L776V counted along it
Method: as §1, §2, §3, §4

RET-wild type = RET-wild type (Homo sapiens (Human), UniProt P07949); assay: Evaluation of RET kinase inhibiting activity (cell system), Ba/F3 cells overexpressing Myc tagged RET; type: cell-based
Chain of RET-wild type (P07949 29-1114): as the sequence (P07949 29-1114 V804L) above, with L776V counted along it
Method: (§5) Thereafter, 1 mL of Cell Lysis Buffer (Cell signaling technology, #9803), a single tablet of Phosphatase inhibitor (Roche, #04906837001), and a single tablet of Protease inhibitor (Roche, #0469312400) were added to 9 mL of MilliQ, and 20 ul of the obtained mixture was then added to each well. The mixture thus obtained was placed on ice for 20 minutes, so that the cells were lysed. A 5-ul aliquot was taken from the cell lysate, and thereafter, 64 nl of Myc antibody (Cell signaling technology, #3946) and Streptavidin Donor beads in an equal amount of 102 nl of P-Tyr-100 Acceptor beads included in the Alpha Screen Phosphotyrosine (P-Tyr-100) assay kit (Perkin Elmer, #6760620C) were added to the aliquot in accordance with the instruction manual included with the aforementioned assay kit. The obtained mixture was reacted at room temperature overnight, and a RET kinase inhibiting activity rate was then measured using Envision.

KDR kinase = KDR kinase (Homo sapiens (Human), UniProt P35968); assay: Evaluation of KDR kinase inhibiting activity (cell system), HUVEC, AlphaLISA; type: cell-based
Chain of KDR kinase (P35968 20-1356): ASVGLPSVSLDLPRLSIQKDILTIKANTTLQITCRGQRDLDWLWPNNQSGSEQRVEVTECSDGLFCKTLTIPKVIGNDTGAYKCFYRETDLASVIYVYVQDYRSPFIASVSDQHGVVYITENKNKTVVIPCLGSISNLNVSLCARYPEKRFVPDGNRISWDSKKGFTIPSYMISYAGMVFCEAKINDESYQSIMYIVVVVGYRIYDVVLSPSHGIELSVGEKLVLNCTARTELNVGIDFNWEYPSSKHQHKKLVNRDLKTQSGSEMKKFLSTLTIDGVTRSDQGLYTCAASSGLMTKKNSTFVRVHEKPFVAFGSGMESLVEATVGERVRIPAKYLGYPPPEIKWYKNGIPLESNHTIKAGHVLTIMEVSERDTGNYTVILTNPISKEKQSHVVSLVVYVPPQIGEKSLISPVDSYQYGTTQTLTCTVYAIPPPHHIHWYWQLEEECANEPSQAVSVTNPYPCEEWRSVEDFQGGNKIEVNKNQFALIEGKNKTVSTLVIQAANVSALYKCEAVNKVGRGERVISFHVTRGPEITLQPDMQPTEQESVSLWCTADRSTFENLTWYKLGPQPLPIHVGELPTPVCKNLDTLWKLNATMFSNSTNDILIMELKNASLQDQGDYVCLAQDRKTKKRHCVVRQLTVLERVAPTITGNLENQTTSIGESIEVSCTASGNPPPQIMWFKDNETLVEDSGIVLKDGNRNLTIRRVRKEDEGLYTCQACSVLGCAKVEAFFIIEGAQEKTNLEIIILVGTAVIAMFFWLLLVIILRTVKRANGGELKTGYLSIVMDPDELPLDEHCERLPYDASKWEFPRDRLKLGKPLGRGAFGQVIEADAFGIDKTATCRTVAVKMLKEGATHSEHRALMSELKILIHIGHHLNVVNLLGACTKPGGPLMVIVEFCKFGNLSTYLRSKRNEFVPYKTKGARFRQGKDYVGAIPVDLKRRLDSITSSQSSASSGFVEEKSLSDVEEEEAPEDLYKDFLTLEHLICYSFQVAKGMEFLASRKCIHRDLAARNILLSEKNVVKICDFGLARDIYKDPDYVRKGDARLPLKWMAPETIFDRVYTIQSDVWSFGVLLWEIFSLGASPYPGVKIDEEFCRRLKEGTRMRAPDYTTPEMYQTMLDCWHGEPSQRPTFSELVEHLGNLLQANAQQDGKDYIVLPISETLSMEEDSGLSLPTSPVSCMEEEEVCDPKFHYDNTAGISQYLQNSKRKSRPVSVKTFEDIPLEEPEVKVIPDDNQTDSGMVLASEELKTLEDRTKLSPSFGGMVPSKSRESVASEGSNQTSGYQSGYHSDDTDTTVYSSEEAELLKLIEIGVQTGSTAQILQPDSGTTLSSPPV
Method: HUVEC cells were seeded on a plate at a cell density of 1500 cells per well, and then cultured overnight. The test compound (10 uM, 2.5 uM, 625 nM, 156 nM, […], 10 nM, 2.5 nM, or 0.6 nM) was added to each well, followed by culturing the obtained mixture for 2 hours. Thereafter, VEGF165 (Peprotech, #100-20) was added to the culture at a final concentration of 50 ng/ml, and the obtained mixture was then reacted at 37° C. for 5 minutes. Thereafter, the resulting cells were lysed with 50 ul of Lysis buffer included in AlphaLISA SureFire Ultra (Perkin Elmer, # ALSU-PVGFR-A500), and Acceptor beads and Donor beads were then added to 10 ul of the cell lysate according to the instruction manual included with the aforementioned kit. The mixture thus obtained was reacted at room temperature overnight, and thereafter, a KDR kinase inhibiting activity rate was measured using Envision (Perkin Elmer).
The value for a well to which only the Lysis buffer had been added was subtracted as a background from all of the values. Thereafter, the value for a well to which […] had been added and the test compound had not been added was defined as a KDR kinase activity of 100%, and the obtained value was corrected.

RET-V804L = RET-V804L (Homo sapiens (Human), UniProt P07949, V804L); assay: Evaluation of RET kinase inhibiting activity (cell system), Ba/F3 cells overexpressing RET (V804L) mutant; type: cell-based; conditions: Ba/F3, compound 2 hours
Chain of RET-V804L (P07949 29-1114 V804L): as the sequence (P07949 29-1114 V804L) above
Method: as §5

[6] = comparator compounds, Form: Free, read-out: IC50 (nM) RET
[7] = cell system, comparator compounds, Form: Free, read-out: IC50 (nM) KDR
[8] = cell system, Form: Mesylate, read-out: IC50 (nM) KDR

**Q.** CCc1cc2c(cc1N1CCC(N3CCOCC3)CC1)C(C)(C)c1[nH]c3cc(C#N)ccc3c1C2=O [Alectinib, 9-Ethyl-6,6-dimethyl-8-[4-(morpholin-4-yl)piperidin-1-yl]-11-oxo-6,11-dihydro-5H-benzo[b]carbazole-3-carbonitrile, reference compound] was tested. Which IC50 [1] did it give?
**A.** The IC50 was 112 nM.

**Q.** And the IC50 [2]?
**A.** The IC50 was 308 nM.

**Q.** With COc1cc2ncc(-c3cnc(CC(=O)Nc4cc(C(C)(C)C(F)(F)F)on4)c(F)c3)nc2cc1OC [Compound 229, reference compound] as the molecule, how does the “suppression of phosphorylated RET (pRET) in Ba/F3-RET-V804M tumors” value ([3]; 10 mg/kg oral) read?
**A.** The value was “did not suppress”.

**Q.** What about the exposure in tumors ([3]; Ba/F3-RET-V804M tumors, 10 mg/kg oral) of the same molecule?
**A.** The exposure in tumors was “poor exposure in tumors”.

**Q.** And the “Relative phosphorylation of RET (%) in Ba/F3-RET-V804M tumors” value ([3]; Dose: 10 mg/kg oral, six hours after administration, relative to vehicle)?
**A.** Its value is 98%.

**Q.** What about the IC50 ([4]; non-cell system, read-out: Biochemical assay (non-cell system) IC50 (nM) RET-V804L) of the same molecule?
**A.** The IC50 was 1.7 nM.

**Q.** And the “inhibitory effect in vitro” value ([5]; in vitro)?
**A.** Its value is “strong inhibitory effect”.

**Q.** And the IC50 ([5]; non-cell system, read-out: Biochemical assay (non-cell system) IC50 (nM) RET-WT)?
**A.** Its IC50 is 1.5 nM.

**Q.** COc1cc2ncc(-c3ccc(CC(=O)Nc4cc(C(C)(C)C(F)(F)F)on4)cc3)nc2cc1OC [Ex. 8, reference compound] was tested. Which IC50 (RET-wild type; [6]) did it give?
**A.** Its IC50 is 7 nM.

**Q.** What about the IC50 (KDR kinase; [7]) of the same molecule?
**A.** The IC50 was 9 nM.

**Q.** COc1cc2cc(-c3ccc(CC(=O)Nc4cc(C(C)(C)C(F)(F)F)on4)cn3)cnc2cc1OC [Example 1, 2-[6-(6,7-Dimethoxyquinolin-3-yl)pyridin-3-yl]-N-[5-(1,1,1-trifluoro-2-methylpropan-2-yl)-1,2-oxazol-3-yl]acetamide] was tested. Which IC50 (RET-wild type; Form: Free, read-out: IC50 (nM) RET) did it give?
**A.** Its IC50 is 18 nM.

**Q.** COc1cc2cc(-c3ccc(CC(=O)Nc4cc(C(C)(C)C(F)(F)F)on4)cn3)cnc2cc1OC [Example 2, 2-[6-(6,7-Dimethoxyquinolin-3-yl)pyridin-3-yl]-N-[5-(1,1,1-trifluoro-2-methylpropan-2-yl)-1,2-oxazol-3-yl]acetamide Methanesulfonate] was tested. Which IC50 (KDR kinase; [8]) did it give?
**A.** The IC50 was 828 nM.

**Q.** Which IC50 (RET-V804L) does the source give for COc1cc2cc(-c3ccc(CC(=O)Nc4cc(C(C)(C)C(F)(F)F)n[nH]4)cn3)cnc2cc1OC [Example 5, 2-[6-(6,7-Dimethoxyquinolin-3-yl)pyridin-3-yl]-N-[3-(1,1,1-trifluoro-2-methylpropan-2-yl)-1H-pyrazol-5-yl]acetamide] here?
**A.** The IC50 was 15 nM.

**Q.** And the IC50 (RET-wild type; Ba/F3, compound 2 hours, read-out: RET-wild type IC50)?
**A.** The IC50 was 10 nM.

**Q.** What about the IC50 [1] of the same molecule?
**A.** The IC50 was 17 nM.

**Q.** And the IC50 ([4]; cell-free system, ATP 1 mM, read-out: RET-V804L IC50)?
**A.** The IC50 was 2.7 nM.

**Q.** And the IC50 ([5]; cell-free system, ATP 1 mM, read-out: RET-wild type IC50)?
**A.** Its IC50 is 2.2 nM.

**Q.** What about the IC50 [2] of the same molecule?
**A.** The IC50 was 82 nM.

**Q.** With COc1cc2cc(-c3ccc(CC(=O)Nc4cc(C(C)(C)C(F)(F)F)n[nH]4)cn3)cnc2cc1OC [Example 6, 2-[6-(6,7-Dimethoxyquinolin-3-yl)pyridin-3-yl]-N-[3-(1,1,1-trifluoro-2-methylpropan-2-yl)-1H-pyrazol-5-yl]acetamide Methanesulfonate] as the molecule, how does the IC50 (KDR kinase; KDR, HUVEC cells, VEGF165 50 ng/ml, compound 2 hours, read-out: IC50) read?
**A.** The IC50 was 566 nM.

**Q.** What about the IC50 (KDR kinase; [8]) of the same molecule?
**A.** Its IC50 is 566 nM.

**Q.** Which results are given for COc1cc2cc(-c3ccc(CC(=O)Nc4cc(C(C)(C)C(F)(F)F)no4)cc3)cnc2cc1OC [Ref Ex. 1, 2-[4-(6,7-Dimethoxyquinolin-3-yl)phenyl]-N-[3-(1,1,1-trifluoro-2-methylpropan-2-yl)-1,2-oxazol-5-yl]-acetamide, reference compound]?
**A.** IC50 (RET-wild type; [6]): 8 nM; IC50 (KDR kinase; cell system, comparator compounds, Form: Mesylate, read-out: IC50 (nM) KDR): 7 nM

**Q.** Which results are given for COc1cc2cc(-c3ccc(CC(=O)Nc4cc(C(C)(C)C(F)(F)F)n[nH]4)cc3)cnc2cc1OC [Ref Ex. 2, 2-[4-(6,7-Dimethoxyquinolin-3-yl)phenyl]-N-[3-(1,1,1-trifluoro-2-methylpropan-2-yl)-1H-pyrazol-5-yl]-acetamide, reference compound]?
**A.** IC50 (RET-wild type; [6]): 5 nM; IC50 (KDR kinase; [7]): 16 nM

**Q.** What does the source list for COc1cc2cc(-c3ccc(CC(=O)Nc4cc(C(C)(C)C(F)(F)F)no4)c(F)c3)cnc2cc1OC [Ref Ex. 3, 2-[4-(6,7-Dimethoxyquinolin-3-yl)-2-fluorophenyl]-N-[3-(1,1,1-trifluoro-2-methylpropan-2-yl)-1,2-oxazol-5-yl]acetamide, reference compound]?
**A.** IC50 (RET-wild type; [6]): 8 nM; IC50 (KDR kinase; [7]): 6 nM

From patent US10851092B2, “Pyridine compound” (Daiichi Sankyo Company, Limited, priority 2016, dated 2020)
